From PubChem BioAssay (NCI)
Values joined by “and” are separate entries in the source; they are usually repeats but may differ in a detail not shown here. Identical values can stand only once.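 Method: 48-hour compound exposure of cells in 96-well plates, five concentrations, linear interpolation of endpoints. GI50 is the concentration that inhibits growth by half. TGI marks complete inhibition of growth.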

Key:
Assay in all cases: NCI-60 cell line screen, 48 h
786-0 renal = tested on: 786-0 renal
COLO 205 colon = tested on: COLO 205 colon
DLD-1 colon = tested on: DLD-1 colon
DMS 273 small cell lung = tested on: DMS 273 small cell lung
LOX IMVI melanoma = tested on: LOX IMVI melanoma
OVCAR-4 ovarian = tested on: OVCAR-4 ovarian
UO-31 renal = tested on: UO-31 renal
OVCAR-3 ovarian = tested on: OVCAR-3 ovarian
UACC-62 melanoma = tested on: UACC-62 melanoma
BT-549 breast = tested on: BT-549 breast

| SMILES | TGI (786-0 renal) [µM] | TGI (COLO 205 colon) | TGI (DLD-1 colon) [µM] | TGI (DMS 273 small cell lung) [µM] | TGI (LOX IMVI melanoma) [µM] | TGI (OVCAR-4 ovarian) [µM] | TGI (UO-31 renal) | TGI (OVCAR-3 ovarian) | TGI (UACC-62 melanoma) | GI50 (786-0 renal) | GI50 (BT-549 breast) [µM] | TGI (BT-549 breast) [µM] | GI50 (COLO 205 colon) [µM] | GI50 (LOX IMVI melanoma) [µM] | GI50 (OVCAR-3 ovarian) [µM] | GI50 (OVCAR-4 ovarian) [µM] | GI50 (UACC-62 melanoma) | GI50 (UO-31 renal) |
| --- | --- | --- | --- | --- | --- | --- | --- | --- | --- | --- | --- | --- | --- | --- | --- | --- | --- | --- |
| C1=CC=C2NCCCCCCCNC3=CC=CC=CC3=NCCCCCCCN=C2C=C1 | > 100 | > 100 µM | > 100 | 39.9 | > 100 | > 100 | > 100 µM | – | – | – | – | – | – | – | – | – | – | – |
| COC1OC(CBr)C(OC(=O)c2ccccc2)C(O)C1Br (stereo unspecified) | > 100 | > 100 µM | > 100 | > 100 | > 100 | > 100 | – | > 100 µM | > 100 µM | – | – | – | – | – | – | – | – | – |
| C[C@]12CCC(=O)C=C1CC[C@@H]1C2CC[C@]2(C)Nc3c(cnn3-c3ccccc3)CC12 (stereo partly specified) | > 100 | – | > 100 | > 100 | – | > 100 | > 100 µM | > 10 µM | > 100 µM | – | – | – | – | – | – | – | – | – |
| O=C(O/C(=C(/N=Nc1ccccc1)c1ccccc1)c1ccccc1)c1ccccc1 | > 100 | – | > 100 | – | – | > 100 | > 100 µM | – | > 100 µM | – | – | – | – | – | – | – | – | – |
| O=C(NC(=O)c1cn(CCN(CCO)C(=O)NCCCCCCNC(=O)N(CCO)CCn2cc(C(=O)NC(=O)OCc3ccccc3)c(=O)[nH]c2=O)c(=O)[nH]c1=O)OCc1ccccc1 | > 100 | > 100 µM | > 100 | > 100 | > 100 | > 100 | > 100 µM | > 100 µM | > 100 µM | – | – | – | – | – | – | – | – | – |
| COc1ccc2c(c1)[n+]([O-])c(-c1ccc(OC)c(OC)c1)c(N)[n+]2[O-] | > 100 | 34.5 µM | > 100 | > 100 | > 100 | > 100 | > 100 µM | > 100 µM | > 100 µM | – | – | – | – | – | – | – | – | – |
| O=C1C2C3C=C4c5ccccc5N(c5ccccc5)C4(C2C(=O)N1c1ccc(Cl)cc1)[C@H]1C(=O)N(c2ccc(Cl)cc2)C(=O)[C@@H]31 (stereo partly specified) | > 100 | > 100 µM | > 100 | > 100 | > 100 | > 100 | > 100 µM | > 100 µM | > 100 µM | – | – | – | – | – | – | – | – | – |
| NC(=O)c1ccc(I)c(N=O)c1 | > 100 | 44.3 µM | – | – | 31.8 | 43.5 | 57.8 µM | 71.5 µM | > 100 µM | 61.8 µM | 40.3 | > 100 | 21.7 | 16.7 | 27.4 | 17.7 | 40.5 µM | 19.9 µM |
| O=C(Cn1c(=O)c(-c2ccccc2)nc2ccccc21)Nc1ccc(F)cc1 | > 100 | > 100 µM | – | – | > 100 | > 100 | > 100 µM | > 100 µM | > 100 µM | 75.2 µM | 36.4 | > 100 | > 100 | > 100 | > 100 | 47.3 | 67.5 µM | > 100 µM |
| O=C1C(N2CC2)=C(N2CC2)C(=O)C(N2CC2)=C1N1CC1 | 0.984 | 0.404 µM | – | – | 0.307 | 7.65 | 0.606 µM | 3.46 µM | 1.13 µM | < 0.0285 µM | 0.318 | 1.53 | 0.163 | < 0.0209 | 1.04 | 2.06 | 0.101 µM | < 0.0304 µM |
| COc1ccc2c(=O)cc(-c3ccncc3)oc2c1OC | > 100 | 30.8 µM | – | – | > 100 | > 100 | 67.6 µM | 64.8 µM | 32.3 µM | – | – | 98.4 | – | – | – | – | – | – |
| C[C@]12CCc3sc(NCCc4ccccc4)nc3C1=CC[C@@H]1[C@@H]2CC[C@]2(C)C(=O)CC[C@@H]12 | 9.61 | 8.77 µM | – | – | 3.17 | > 100 | 25.1 µM | 4.83 µM | 10.6 µM | 2.82 µM | 2.42 | > 100 | 3.03 | 1.7 | 2.08 | 3.93 | 2.67 µM | 4.03 µM |
| COc1cccc(-c2nn(-c3ccccc3)cc2-c2ccnc(NCCCNC(=O)Nc3ccc(Cl)c(Cl)c3)c2)c1 | 3.97 | 3.82 µM | – | – | 3.03 | 18.1 | 5.65 µM | 17.3 µM | 4 µM | 1.82 µM | 3.2 | 11.2 | 1.87 | 1.64 | 4.57 | 3.55 | 1.91 µM | 1.78 µM |
| CCCc1cc(=O)[nH]c(-n2nc(C)cc2C)n1 | > 100 | > 100 µM | – | – | > 100 | > 100 | > 100 µM | > 100 µM | 35.7 µM | 7.62 µM | 6.86 | > 100 | 8.45 | 2.81 | 7.43 | 4.68 | 2.31 µM | 2.4 µM |
| COc1cc(NC(C)CCCN)c2ncccc2c1 (stereo unspecified) | > 100 | 41.2 µM and 64 µM | > 100 | > 100 | > 100 | > 100 | 57.8 µM and > 100 µM | 84.2 µM and > 100 µM | 51.9 µM and > 89.5 µM | 43.8 µM and > 88.2 µM | – | > 100 | – | – | – | – | 20.3 µM and 45.3 µM | 15.2 µM and 42.9 µM |
| COC(=O)c1ccccc1OCc1cc(=O)oc2ccc(C)cc12 | > 100 | > 100 µM | > 100 | > 100 | > 100 | > 63.4 | > 100 µM | > 100 µM | > 66.6 µM | – | – | > 100 | – | – | – | – | – | – |
